In patent US20220402882A1, “HERBICIDAL COMPOUNDS” (SYNGENTA CROP PROTECTION AG, priority 2019, published 2022):

Key:
Type in all cases: in vivo
Conditions in all cases: 125 g/h, evaluated after 13 days
[1] = tested on: Abutilon theophrasti (ABUTH); assay: Pre-emergence glasshouse herbicide test
Procedure: (§1) Seeds of a variety of test species are sown in standard soil in pots (Lolium perenne (LOLPE), Amaranthus retoflexus (AMARE), Abutilon theophrasti (ABUTH), Setaria faberi (SETFA), Echinochloa crus-galli (ECHCG), Ipomoea hederacea (IPOHE)). After cultivation for one day (pre-emergence) or after 8 days cultivation (post-emergence) under controlled conditions in a glasshouse (at 24/16° C., day/night; 14 hours light; 65% humidity), the plants are sprayed with an aqueous spray solution derived from the formulation of the technical active ingredient in acetone/water (50:50) solution containing 0.5% Tween™ 20 (polyoxyethelyene sorbitan monolaurate, CAS RN 9005-64-5). Compounds are applied at 125 g/h unless otherwise indicated. The test plants are then grown in a glasshouse under controlled conditions in a glasshouse (at 24/16° C., day/night; 14 hours light; 65% humidity) and watered twice daily. After 13 days for pre- and post-emergence, the test is evaluated for the percentage damage caused to the plant. The biological activities are shown in the following table on a five-point scale (5=80-100%; 4=60-79%; 3=40-59%; 2=20-39%; 1=0-19%).

[2] = tested on: Amaranthus retoflexus (AMARE); assay: Pre-emergence glasshouse herbicide test
Procedure: as §1

[3] = tested on: Echinochloa crus-galli (ECHCG); assay: Pre-emergence glasshouse herbicide test
Procedure: as §1

[4] = tested on: Ipomoea hederacea (IPOHE); assay: Pre-emergence glasshouse herbicide test
Procedure: as §1

[5] = tested on: Setaria faberi (SETFA); assay: Pre-emergence glasshouse herbicide test
Procedure: as §1

[6] = tested on: Abutilon theophrasti (ABUTH); assay: Post-emergence glasshouse herbicide test
Procedure: as §1

[7] = tested on: Amaranthus retoflexus (AMARE); assay: Post-emergence glasshouse herbicide test
Procedure: as §1

[8] = tested on: Echinochloa crus-galli (ECHCG); assay: Post-emergence glasshouse herbicide test
Procedure: as §1

[9] = tested on: Ipomoea hederacea (IPOHE); assay: Post-emergence glasshouse herbicide test
Procedure: as §1

[10] = tested on: Setaria faberi (SETFA); assay: Post-emergence glasshouse herbicide test
Procedure: as §1

| SMILES | percentage damage caused to the plant, ABUTH [1] | percentage damage caused to the plant, AMARE [2] | percentage damage caused to the plant, ECHCG [3] | percentage damage caused to the plant, IPOHE [4] | percentage damage caused to the plant, SETFA [5] | percentage damage caused to the plant, ABUTH [6] | percentage damage caused to the plant, AMARE [7] | percentage damage caused to the plant, ECHCG [8] | percentage damage caused to the plant, IPOHE [9] | percentage damage caused to the plant, SETFA [10] |
| --- | --- | --- | --- | --- | --- | --- | --- | --- | --- | --- |
| CCS(=O)(=O)c1c(OCC(F)(F)F)ccc(C(=O)Nc2nnnn2C)c1Cl [Compound 1.035] | 5 (5=80-100%) | 5 (5=80-100%) | 5 (5=80-100%) | 5 (5=80-100%) | 5 (5=80-100%) | 5 (5=80-100%) | 5 (5=80-100%) | 5 (5=80-100%) | 5 (5=80-100%) | 5 (5=80-100%) |
| CCCS(=O)(=O)c1c(OC(F)F)ccc(C(=O)Nc2nnnn2C)c1Cl [Compound 1.050] | 5 (5=80-100%) | 5 (5=80-100%) | 5 (5=80-100%) | 3 (3=40-59%) | 5 (5=80-100%) | 5 (5=80-100%) | 5 (5=80-100%) | 5 (5=80-100%) | 4 (4=60-79%) | 5 (5=80-100%) |
| CCS(=O)(=O)c1cc(C(=O)Nc2nnnn2C)ccc1OC(F)F [Compound 1.025] | 5 (5=80-100%) | 5 (5=80-100%) | 5 (5=80-100%) | 4 (4=60-79%) | 5 (5=80-100%) | 5 (5=80-100%) | 5 (5=80-100%) | 5 (5=80-100%) | 5 (5=80-100%) | 5 (5=80-100%) |
| CCS(=O)(=O)c1c(OCC(F)(F)F)ccc(C(=O)Nc2nnnn2C)c1C [Compound 1.040] | 5 (5=80-100%) | 5 (5=80-100%) | 5 (5=80-100%) | 5 (5=80-100%) | 5 (5=80-100%) | 5 (5=80-100%) | 5 (5=80-100%) | 5 (5=80-100%) | 5 (5=80-100%) | 5 (5=80-100%) |
| CCSc1c(OC(F)(F)F)ccc(C(=O)Nc2nnnn2C)c1C [Compound 1.030] | 5 (5=80-100%) | 5 (5=80-100%) | 5 (5=80-100%) | 3 (3=40-59%) | 5 (5=80-100%) | 5 (5=80-100%) | 5 (5=80-100%) | 5 (5=80-100%) | 5 (5=80-100%) | 5 (5=80-100%) |
| CC(C)S(=O)(=O)c1c(OC(F)F)ccc(C(=O)Nc2nnnn2C)c1Cl [Compound 1.054] | 5 (5=80-100%) | 5 (5=80-100%) | 5 (5=80-100%) | 4 (4=60-79%) | 5 (5=80-100%) | 4 (4=60-79%) | 4 (4=60-79%) | 4 (4=60-79%) | 4 (4=60-79%) | 4 (4=60-79%) |
| CCSc1c(OC(F)F)ccc(C(=O)Nc2nnnn2C)c1C [Compound 1.028] | 5 (5=80-100%) | 5 (5=80-100%) | 5 (5=80-100%) | 3 (3=40-59%) | 5 (5=80-100%) | 5 (5=80-100%) | 5 (5=80-100%) | 5 (5=80-100%) | 5 (5=80-100%) | 5 (5=80-100%) |
| CC[S+]([O-])c1c(OCC(F)(F)F)ccc(C(=O)Nc2nnnn2C)c1Cl (centres unmarked) [Compound 1.036] | 5 (5=80-100%) | 5 (5=80-100%) | 5 (5=80-100%) | 4 (4=60-79%) | 5 (5=80-100%) | 5 (5=80-100%) | 5 (5=80-100%) | 5 (5=80-100%) | 5 (5=80-100%) | 5 (5=80-100%) |
| CCS(=O)(=O)c1c(OC(F)F)ccc(C(=O)Nc2nnnn2C)c1C [Compound 1.031] | 5 (5=80-100%) | 5 (5=80-100%) | 5 (5=80-100%) | 5 (5=80-100%) | 5 (5=80-100%) | 5 (5=80-100%) | 5 (5=80-100%) | 5 (5=80-100%) | 5 (5=80-100%) | 5 (5=80-100%) |
| CCSc1c(OC(F)(F)F)ccc(C(=O)Nc2nnc(C)o2)c1Cl [Compound 2.010] | 4 (4=60-79%) | 5 (5=80-100%) | 5 (5=80-100%) | 1 (1=0-19%) | 5 (5=80-100%) | 5 (5=80-100%) | 5 (5=80-100%) | 5 (5=80-100%) | 4 (4=60-79%) | 5 (5=80-100%) |
| CCS(=O)(=O)c1c(OC(F)F)ccc(C(=O)Nc2nnc(C)o2)c1Cl [Compound 2.013] | 5 (5=80-100%) | 5 (5=80-100%) | 5 (5=80-100%) | 4 (4=60-79%) | 5 (5=80-100%) | 5 (5=80-100%) | 5 (5=80-100%) | 5 (5=80-100%) | 4 (4=60-79%) | 5 (5=80-100%) |
| CCSc1c(OC(F)(F)F)ccc(C(=O)Nc2nnnn2C)c1Cl [Compound 1.021] | 4 (4=60-79%) | 5 (5=80-100%) | 5 (5=80-100%) | 3 (3=40-59%) | 5 (5=80-100%) | 5 (5=80-100%) | 4 (4=60-79%) | 5 (5=80-100%) | 5 (5=80-100%) | 5 (5=80-100%) |
| CC[S+]([O-])c1c(OC(F)F)ccc(C(=O)Nc2nnnn2C)c1C (centres unmarked) [Compound 1.029] | 5 (5=80-100%) | 5 (5=80-100%) | 5 (5=80-100%) | 4 (4=60-79%) | 5 (5=80-100%) | 5 (5=80-100%) | 5 (5=80-100%) | 5 (5=80-100%) | 5 (5=80-100%) | 5 (5=80-100%) |
| CCn1nnnc1NC(=O)c1ccc(OC(F)(F)F)c(S(=O)(=O)CC)c1C [Compound 1.046] | 5 (5=80-100%) | 5 (5=80-100%) | 5 (5=80-100%) | 5 (5=80-100%) | 5 (5=80-100%) | 5 (5=80-100%) | 5 (5=80-100%) | 5 (5=80-100%) | 5 (5=80-100%) | 5 (5=80-100%) |
